# Literature values in publication PMC4912218, “Targeted metabolomics of Gammarus pulex following controlled exposures to selected pharmaceuticals in water” (The Science of the Total Environment, 2016).
# Set-up: method as in Drugbank
# Details: 20 °C; ref Drugbank; cited from earlier work
compound,measurement,value
Oc1cc(Cl)ccc1Oc1ccc(Cl)cc1Cl [Triclosan],Water solubility,12000 (20 ºC) mg L^-1
